Assays:
[1] = target: PknA-core (PknA-338) (Mycobacterium tuberculosis, UniProt P9WI83)
[2] = target: PknB (Mycobacterium tuberculosis, UniProt P9WI81)
Sequence of PknB (P9WI81 2-626): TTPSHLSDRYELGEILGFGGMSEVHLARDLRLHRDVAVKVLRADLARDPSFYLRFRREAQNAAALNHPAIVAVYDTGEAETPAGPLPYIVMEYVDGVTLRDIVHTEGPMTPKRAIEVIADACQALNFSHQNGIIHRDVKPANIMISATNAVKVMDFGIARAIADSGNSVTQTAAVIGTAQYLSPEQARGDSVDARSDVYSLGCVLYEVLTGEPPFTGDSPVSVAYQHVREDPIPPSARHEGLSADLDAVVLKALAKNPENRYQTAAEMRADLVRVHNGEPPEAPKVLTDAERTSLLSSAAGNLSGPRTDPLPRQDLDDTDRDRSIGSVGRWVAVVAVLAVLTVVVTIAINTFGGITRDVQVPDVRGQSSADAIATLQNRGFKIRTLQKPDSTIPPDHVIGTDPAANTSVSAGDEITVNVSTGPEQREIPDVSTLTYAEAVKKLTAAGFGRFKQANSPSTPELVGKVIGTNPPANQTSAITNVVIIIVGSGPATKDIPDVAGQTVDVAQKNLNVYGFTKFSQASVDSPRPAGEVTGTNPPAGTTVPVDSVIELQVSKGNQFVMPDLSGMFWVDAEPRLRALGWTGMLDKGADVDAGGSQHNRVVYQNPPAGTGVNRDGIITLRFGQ

Sequence of PknA-core (PknA-338) (P9WI83 1-338): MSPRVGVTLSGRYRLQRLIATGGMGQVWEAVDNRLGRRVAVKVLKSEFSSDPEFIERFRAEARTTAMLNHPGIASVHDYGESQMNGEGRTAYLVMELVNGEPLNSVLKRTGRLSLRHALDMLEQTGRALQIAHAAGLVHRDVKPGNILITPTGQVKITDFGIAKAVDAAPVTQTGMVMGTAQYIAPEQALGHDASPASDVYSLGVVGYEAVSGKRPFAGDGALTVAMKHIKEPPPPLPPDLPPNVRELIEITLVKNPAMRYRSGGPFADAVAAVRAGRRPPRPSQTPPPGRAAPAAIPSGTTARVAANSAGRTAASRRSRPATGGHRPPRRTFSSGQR

`Nc1ncnc2c1ncn2[C@@H]1O[C@H](COP(=O)(O)OP(=O)(O)OP(=O)(O)O)[C@@H](O)[C@H]1O` [[γ-32P] ATP] was tested, and the “in vitro kinase assay, SDS/PAGE and autoradiography” value [1] was “its incubation with PknA exhibited phosphorylation” and the “in vitro kinase assay, SDS/PAGE and autoradiography” value [2] was “PknB, another essential mycobacterial kinase, instead of PknA in the assay yielded weak p-mGmk”.

From PMC5686395, “Eukaryotic-type serine/threonine kinase mediated phosphorylation at Thr^169 perturbs mycobacterial guanylate kinase activity” (Bioscience Reports, 2017)
